Series [1] has as its target T1, ATP-dependent translocase ABCB1 (Homo sapiens, UniProt P08183). Description: TP_TRANSPORTER: inhibition of Vinblastine transepithelial transport (basal to apical)(Vinblastine: 0.004 uM, Nicardipine: 60 uM) in Caco-2 cells. The class given is functional, cell-based. Conditions: caco-2, 60 µM.
Series [2] concerns the target T1, ATP-dependent translocase ABCB1. Description: TP_TRANSPORTER: inhibition of Vinblastine transepithelial transport (basal to apical) (Vinblastine: 0.004 uM, […]: 3000 uM) in Caco-2 cells. The class given is functional, cell-based. Conditions: caco-2, 3000 µM. In general terms: Caco-2 monolayers are a common model of the intestinal barrier.

T1 sequence (P08183 whole entry): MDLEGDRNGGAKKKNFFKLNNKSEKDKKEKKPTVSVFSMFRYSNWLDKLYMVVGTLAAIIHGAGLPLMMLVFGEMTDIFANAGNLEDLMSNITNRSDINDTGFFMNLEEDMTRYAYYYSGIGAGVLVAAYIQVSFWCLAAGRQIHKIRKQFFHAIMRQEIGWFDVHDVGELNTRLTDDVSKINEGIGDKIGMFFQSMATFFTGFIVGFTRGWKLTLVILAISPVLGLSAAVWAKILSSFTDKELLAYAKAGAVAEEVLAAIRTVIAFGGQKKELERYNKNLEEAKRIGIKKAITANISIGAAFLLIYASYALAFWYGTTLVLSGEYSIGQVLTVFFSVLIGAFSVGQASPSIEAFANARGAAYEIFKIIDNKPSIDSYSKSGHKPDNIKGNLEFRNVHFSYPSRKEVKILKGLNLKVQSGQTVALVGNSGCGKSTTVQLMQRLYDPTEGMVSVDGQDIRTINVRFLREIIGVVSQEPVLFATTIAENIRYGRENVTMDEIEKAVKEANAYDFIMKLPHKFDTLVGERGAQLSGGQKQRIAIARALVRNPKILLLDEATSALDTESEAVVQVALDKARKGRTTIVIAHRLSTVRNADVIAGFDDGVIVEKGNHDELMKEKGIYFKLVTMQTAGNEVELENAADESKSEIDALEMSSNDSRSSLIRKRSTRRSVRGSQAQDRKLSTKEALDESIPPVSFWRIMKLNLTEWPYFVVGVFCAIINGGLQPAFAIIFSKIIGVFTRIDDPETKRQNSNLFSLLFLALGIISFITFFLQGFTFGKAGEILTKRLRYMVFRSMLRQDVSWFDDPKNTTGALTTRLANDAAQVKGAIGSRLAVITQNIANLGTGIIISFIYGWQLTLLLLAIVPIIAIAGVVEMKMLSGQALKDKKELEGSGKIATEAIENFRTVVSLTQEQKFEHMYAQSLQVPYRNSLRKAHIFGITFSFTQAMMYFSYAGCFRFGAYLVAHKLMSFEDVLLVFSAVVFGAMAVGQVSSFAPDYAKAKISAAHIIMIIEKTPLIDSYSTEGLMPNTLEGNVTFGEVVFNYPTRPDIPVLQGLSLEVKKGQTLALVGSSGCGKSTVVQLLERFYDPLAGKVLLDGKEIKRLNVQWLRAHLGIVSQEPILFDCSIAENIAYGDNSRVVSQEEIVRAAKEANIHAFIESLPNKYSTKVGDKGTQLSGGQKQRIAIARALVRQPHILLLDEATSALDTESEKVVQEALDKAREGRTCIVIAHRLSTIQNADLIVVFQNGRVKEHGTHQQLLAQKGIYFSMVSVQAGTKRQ

With `COC(=O)C1=C(C)NC(C)=C(C(=O)OCCN(C)Cc2ccccc2)C1c1cccc([N+](=O)[O-])c1` (configuration not stated) [NICARDIPINE], in series [1], the Activity result is “inhibitor [+]”.

As to `CNC(=C[N+](=O)[O-])NCCSCc1ccc(CN(C)C)o1` [RANITIDINE], the Activity result in series [2] is “inhibitor [+]”.

The values are drawn from ChEMBL document CHEMBL2074198, “Influence of passive permeability on apparent P-glycoprotein kinetics” (Pharm Res, 2000).
